Reference: patent US20250009903A1, “PEPTIDE-BINDING HYBRID LIPOSOME EXOSOME, PEPTIDE-BINDING EXOSOME, COMPOSITION CONTAINING SAME, AND METHOD OF FORMING SAME” (SEKISUI CHEMICAL CO., LTD., priority 2021, published 2025)

Tested on: HepG2 cells
Test: Influence of peptide-binding MSC-derived / HEK293 cell-derived exosome solutions on cell growth (Experimental Example 5)
Format: cell-based
Description: After the sample medium was added, culturing was performed for 48 hours, and using the 8-channel pipette, washing was performed twice with 100 μl of a serum-free DMEM medium (H-Glc). A 10% FBS (exosome-depleted) DMEM (H-Glc) medium was added at 100 μl/well. In addition, after culturing was performed for 48 hours, Premix WST-1 Cell Proliferation Assay System (reagent for cell growth measurement, commercially available from Takara Bio Inc.) was added at 10 μl/well, and color development was performed by performing incubation for 2 hours under […] conditions. The absorbance at 440 nm was measured using “Synergy HTX Multimode Plate Reader” (culture plate absorptiometer, commercially available from Bio Tek Instruments, Inc.). The average absorbance of the control group (no liposome added) was set as 100, the percentage of the absorbance of each well was calculated and used as an index of the degree of cell growth. Here, the Tukey Kramer method was used for the multiple comparison test.
A solution of a peptide having an amino acid sequence shown in SEQ ID NO: 1 was added to a 20 mM borate buffer solution (pH 8.6). In addition, Lipofectamine (registered trademark) (solution for transfection) was dissolved in a serum-free DMEM to prepare a 10% Lipofectamine solution. […]

WEAALAEALAEALAEHLAEALAEALEALAA (Amino acid sequence derived from a protein fragment) [peptide]
% with respect to control group (degree of cell growth) (Table 6A, Adipo-MSC-derived exosome 40 μg/ml, peptide SEQ ID NO: 1, DOX liposome 40 μM, n=6): 147.2%
% with respect to control group (degree of cell growth) (Table 6B, HEK293 cell-derived exosome 40 μg/ml, peptide SEQ ID No. 1, DOX liposome 40 μM): 141.3%
